Experimental data from US20260250318A1, “COMPOSITIONS AND METHODS FOR CROSSING THE BLOOD BRAIN BARRIER” (VOYAGER THERAPEUTICS, INC., priority 2022, published 2026).

Assays:
[1] = system: brains, heart, liver, muscle, and DRG of the NHPs; assay: Maturation of TTM-001 and TTM-002 capsids, NGS enrichment in NHP tissues; assay type: in vivo; conditions: relative to AAV9 control
Method in brief: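 Variants carry mutations within and flanking the loop IV peptide insert: positions 450–466 were triplet-randomized, while positions 449–466 received low-frequency point mutations. The combined pool went into two NHPs, and each peptide was scored by NGS enrichment ratio against AAV9.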

brain = assay: Matured TTM-001 and TTM-002 variants, NGS enrichment in mouse brain; assay type: in vivo, mice; conditions: relative to AAV9 control
[2] = NGS fold-enrichment, DRG of NHPs
[3] = NGS fold-enrichment, RNA, brain of NHPs
[4] = NGS fold-enrichment, heart of NHPs
[5] = NGS fold-enrichment, liver DNA of NHPs
[6] = NGS fold-enrichment, liver RNA of NHPs
[7] = NGS fold-enrichment, muscle of NHPs
[8] = NGS fold-enrichment, brain of mice
[9] = NGS fold-enrichment of matured AAV capsid variants, NHP brain, RNA
[10] = NGS fold-enrichment of RNA, NHP brain
[11] = NGS fold-enrichment, NHP liver DNA
[12] = NGS fold-enrichment, NHP liver RNA
[13] = NGS fold-enrichment, NHP muscle
[14] = NGS fold-enrichment, mouse brain

Sequence	Fold Enrichment relative to AAV9, DRG (NHP) [1, 2]	Fold Enrichment relative to AAV9, Brain (NHP) [1, 3]	Fold Enrichment relative to AAV9, Heart (NHP) [1, 4]	Fold Enrichment relative to AAV9, Liver DNA (NHP) [1, 5]	Fold Enrichment relative to AAV9, Liver RNA (NHP) [1, 6]	Fold Enrichment relative to AAV9, Muscle (NHP) [1, 7]	Fold Enrichment relative to AAV9, Brain (Mouse) (brain; [8])	Fold Enrichment relative to AAV9, Brain (NHP) [1, 9]	Fold Enrichment relative to AAV9, DRG (NHP) ([1]; NHP DRG)	Fold Enrichment relative to AAV9, Heart (NHP) ([1]; NHP heart)	Fold Enrichment relative to AAV9, Liver DNA (NHP) ([1]; NHP liver, DNA)	Fold Enrichment relative to AAV9, Liver RNA (NHP) ([1]; NHP liver, RNA)	Fold Enrichment relative to AAV9, Muscle (NHP) ([1]; NHP muscle)	Fold Enrichment relative to AAV9, Brain (Mouse) (brain; mouse brain)	further results
KTINGSGSPHSKSQNVQT	0.000 fold	66.627 fold	0.190 fold	0.188 fold	0.202 fold	0.000 fold	56.672 fold	–	–	–	–	–	–	–	–
KTINGSGSPHSKSQSQLT	–	–	–	–	–	–	–	55.430 fold	0.000 fold	0.035 fold	0.013 fold	0.050 fold	0.000 fold	125.577 fold	–
KTINGSGSPHSKSQSQQI	0.000 fold	61.870 fold	0.000 fold	0.175 fold	0.200 fold	0.000 fold	64.027 fold	–	–	–	–	–	–	–	–
KTINGSGSPHSKSQTQQN	0.000 fold	104.474 fold	0.131 fold	0.038 fold	0.084 fold	0.000 fold	54.021 fold	–	–	–	–	–	–	–	Fold Enrichment relative to AAV9, Brain (NHP) [1, 10]: 104.474 fold; Fold Enrichment relative to AAV9, DRG (NHP) ([1]; NGS fold-enrichment, NHP DRG): 0.000 fold; Fold Enrichment relative to AAV9, Heart (NHP) ([1]; NGS fold-enrichment, NHP heart): 0.131 fold; Fold Enrichment relative to AAV9, Liver DNA (NHP) [1, 11]: 0.038 fold; Fold Enrichment relative to AAV9, Liver RNA (NHP) [1, 12]: 0.084 fold; Fold Enrichment relative to AAV9, Muscle (NHP) [1, 13]: 0.000 fold; Fold Enrichment relative to AAV9, Brain (Mouse) (brain; [14]): 54.021 fold
KTINGSGSPHSKTKSQQT	0.000 fold	70.891 fold	0.568 fold	0.496 fold	0.418 fold	0.045 fold	83.923 fold	–	–	–	–	–	–	–	–
KTINGSGSPHSKTQNHQN	–	–	–	–	–	–	–	55.551 fold	0.000 fold	0.048 fold	0.099 fold	0.000 fold	0.000 fold	64.846 fold	–
KTINGSGSPHSKVPNLQT	–	–	–	–	–	–	–	57.046 fold	0.000 fold	0.029 fold	0.082 fold	0.459 fold	0.000 fold	50.474 fold	–
KTINGSGSPHSYHVNQQT	–	–	–	–	–	–	–	50.486 fold	0.000 fold	0.056 fold	0.275 fold	0.528 fold	0.059 fold	179.489 fold	–
KTINGSGSPHTKAQNPPT	–	–	–	–	–	–	–	–	–	–	–	–	–	–	Fold Enrichment relative to AAV9, Brain (NHP) [1, 10]: 147.061 fold; Fold Enrichment relative to AAV9, DRG (NHP) ([1]; NGS fold-enrichment, NHP DRG): 0.000 fold; Fold Enrichment relative to AAV9, Heart (NHP) ([1]; NGS fold-enrichment, NHP heart): 0.727 fold; Fold Enrichment relative to AAV9, Liver DNA (NHP) [1, 11]: 0.000 fold; Fold Enrichment relative to AAV9, Liver RNA (NHP) [1, 12]: 0.000 fold; Fold Enrichment relative to AAV9, Muscle (NHP) [1, 13]: 0.000 fold; Fold Enrichment relative to AAV9, Brain (Mouse) (brain; [14]): 34.425 fold
KTINGSGSPHTKAQNPQS	0.000 fold	72.594 fold	0.000 fold	0.130 fold	0.000 fold	0.000 fold	62.508 fold	–	–	–	–	–	–	–	–
KTINGSGSSHSKAQNQQT	–	–	–	–	–	–	–	54.292 fold	1.709 fold	1.870 fold	0.458 fold	1.075 fold	1.287 fold	67.731 fold	–
KTINGSVSPHGKAQNQLT (peptide inserted in AAV capsid)	0.000 fold	73.525 fold	0.061 fold	0.053 fold	0.000 fold	0.067 fold	51.358 fold	–	–	–	–	–	–	–	–
KTINGTGSPHSKAPNQLT	–	–	–	–	–	–	–	58.738 fold	0.000 fold	0.000 fold	0.035 fold	0.229 fold	0.000 fold	86.939 fold	–
KTINGTGSPHSKAQNHQI	0.171 fold	77.089 fold	0.000 fold	0.166 fold	0.000 fold	0.000 fold	54.281 fold	–	–	–	–	–	–	–	Fold Enrichment relative to AAV9, Brain (NHP) [1, 10]: 77.089 fold; Fold Enrichment relative to AAV9, DRG (NHP) ([1]; NGS fold-enrichment, NHP DRG): 0.171 fold; Fold Enrichment relative to AAV9, Heart (NHP) ([1]; NGS fold-enrichment, NHP heart): 0.000 fold; Fold Enrichment relative to AAV9, Liver DNA (NHP) [1, 11]: 0.166 fold; Fold Enrichment relative to AAV9, Liver RNA (NHP) [1, 12]: 0.000 fold; Fold Enrichment relative to AAV9, Muscle (NHP) [1, 13]: 0.000 fold; Fold Enrichment relative to AAV9, Brain (Mouse) (brain; [14]): 54.281 fold
KTINGTGSPHSKAQNQQM	0.000 fold	62.151 fold	0.000 fold	0.000 fold	0.000 fold	0.000 fold	62.376 fold	–	–	–	–	–	–	–	–
KTINGYDSPHKSGQYQHT	–	–	–	–	–	–	–	–	–	–	–	–	–	–	Fold Enrichment relative to AAV9, Brain (NHP) [1, 10]: 81.534 fold; Fold Enrichment relative to AAV9, DRG (NHP) ([1]; NGS fold-enrichment, NHP DRG): 0.000 fold; Fold Enrichment relative to AAV9, Heart (NHP) ([1]; NGS fold-enrichment, NHP heart): 0.036 fold; Fold Enrichment relative to AAV9, Liver DNA (NHP) [1, 11]: 0.000 fold; Fold Enrichment relative to AAV9, Liver RNA (NHP) [1, 12]: 0.000 fold; Fold Enrichment relative to AAV9, Muscle (NHP) [1, 13]: 0.000 fold; Fold Enrichment relative to AAV9, Brain (Mouse) (brain; [14]): 10.524 fold
KTINKEGSPHSKAQNQQT	–	–	–	–	–	–	–	53.006 fold	0.000 fold	0.029 fold	0.111 fold	0.177 fold	0.000 fold	64.520 fold	–
